{
  "source": "patent US12503454B2",
  "about": "“LPA receptor antagonists and uses thereof” (Gilead Sciences, Inc., priority 2021, dated 2025)",
  "data": [
    {"biological_target": "human LPAR1 (Homo sapiens, UniProt Q92633)", "sequence (Q92633 whole entry)": "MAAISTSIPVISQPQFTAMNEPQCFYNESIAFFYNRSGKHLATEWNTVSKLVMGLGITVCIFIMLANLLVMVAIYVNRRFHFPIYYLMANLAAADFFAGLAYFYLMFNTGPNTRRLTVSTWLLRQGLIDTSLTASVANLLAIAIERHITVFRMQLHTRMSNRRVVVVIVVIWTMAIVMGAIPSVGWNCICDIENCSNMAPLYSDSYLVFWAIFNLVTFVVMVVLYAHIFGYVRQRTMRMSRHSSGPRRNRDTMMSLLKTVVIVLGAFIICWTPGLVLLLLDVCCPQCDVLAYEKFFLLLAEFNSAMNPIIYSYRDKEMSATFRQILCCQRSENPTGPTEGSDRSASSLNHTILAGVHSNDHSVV", "assay": "LPAR1 intracellular calcium mobilization assay (antagonist mode, FLIPR)", "format": "cell-based", "conditions": "CHO-K1 EDG2 cells expressing human LPAR1; test compound 0.5 nM to 10 μM pre-incubated 60 minutes at 37° C., then LPA 18:2 at EC80 concentration (100 nM)", "summary_of_the_method": "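CHO-K1 cells expressing human LPAR1, Calcium 6 dye-loaded with 2.5 mM probenecid, pre-incubated 60 min at 37°C with compound (0.5 nM–10 μM), then challenged with LPA 18:2 at EC80 (100 nM). FLIPR Tetra signal amplitude (max minus min) plotted against log concentration.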", "units": {"EC50": "nM"}, "values": [
      {"smiles": "C[C@@H](OC(=O)Nc1c(-c2ccc(C(=O)NC34CC(F)(C3)C4)cn2)nnn1C)c1cccnc1F", "note": "[Compound 57, (R)-1-(2-fluoropyridin-3-ylethyl (4-(5-((3-fluorobicyclo[1.1.1]-pentan-1-yl)carbamoyl)-pyridin-2-yl)-1-methyl-1H-1,2,3-triazol-5-yl)-carbamate]", "EC50": 717},
      {"smiles": "C[C@@H](OC(=O)Nc1c(-c2ccc(C(=O)Nc3ccccc3)cn2)nnn1C)c1cccnc1Cl", "note": "[Compound 14, (R)-1-(2-chloro-pyridin-3-yl)-ethyl (1-methyl-4-(5-(phenyl-carbamoyl)-pyridin-2-yl)-1H-1,2,3-triazol-5-yl)carbamate]", "EC50": 256},
      {"smiles": "C[C@@H](OC(=O)Nc1c(-c2ncc(C(=O)NC34CC(F)(C3)C4)cc2F)nnn1C)c1cccnc1Cl", "note": "[Compound 64, (R)-1-(2-chloropyridin-3-yl)ethyl (4-(3-fluoro-5-((3-fluorobicyclo[1.1.1]pentan-1-yl)carbamoyl)pyridin-2-yl)-1-methyl-1H-1,2,3-triazol-5-yl)carbamate]", "EC50": 93.5},
      {"smiles": "C[C@@H](OC(=O)Nc1c(-c2ccc(C(=O)NC34CC(C#N)(C3)C4)cn2)nnn1C)c1cc(F)cnc1F", "note": "[Compound 18, (R)-1-(2,5-difluoropyridin-3-yl)ethyl (4-(5-((3-cyanobicyclo[1.1.1]pentan-1-yl)carbamoyl)pyridin-2-yl)-1-methyl-1H-1,2,3-triazol-5-yl)carbamate]", "EC50": 91.2},
      {"smiles": "C[C@@H](OC(=O)Nc1c(-c2ccc(C(=O)Nc3ccnc(C(F)(F)F)c3)cn2)nnn1C)c1cc(F)cnc1F", "note": "[Compound 19, (R)-1-(2,5-difluoropyridin-3-yl)ethyl (1-methyl-4-(5-((2-(trifluoromethyl)pyridin-4-yl)carbamoyl)pyridin-2-yl)-1H-1,2,3-triazol-5-yl)carbamate]", "EC50": 16.6},
      {"smiles": "C[C@@H](OC(=O)Nc1c(-c2ccc(C(=O)Nc3ccc(-c4ccccc4)cc3)cn2)nnn1C)c1cc(F)cnc1F", "note": "[Compound 36, (R)-1-(2,5-difluoro-pyridin-3-yl)ethyl (4-(5-([1,1′-biphen-yl]-4-ylcarbamoyl)-pyridin-2-yl)-1-methyl-1H-1,2,3-triazol-5-yl)-carbamate]", "EC50": 15.6},
      {"smiles": "C[C@@H](OC(=O)Nc1c(-c2ccc(C(=O)NC34CC(C(F)F)(C3)C4)cn2)nnn1C)c1cc(F)cnc1Cl", "note": "[Compound 48, (R)-1-(2-chloro-5-fluoropyridin-3-yl)ethyl (4-(5-((3-(difluoromethyl)-bicyclo[1.1.1]-pentan-1-yl)-carbamoyl)pyridin-2-yl)-1-methyl-1H-1,2,3-triazol-5-yl)carbamate]", "EC50": 80.7},
      {"smiles": "C[C@@H](OC(=O)Nc1c(-c2ccc(C(=O)Nc3ccc(C#N)cc3)cn2)nnn1C)c1cc(F)cnc1Cl", "note": "[Compound 49, (R)-1-(2-chloro-5-fluoropyridin-3-yl)ethyl (4-(5-((4-cyanophenyl)-carbamoyl)pyridin-2-yl)-1-methyl-1H-1,2,3-triazol-5-yl)carbamate]", "EC50": 74.3},
      {"smiles": "C[C@@H](OC(=O)Nc1c(-c2ccc(C(=O)NC34CC(C(F)(F)F)(C3)C4)cn2)nnn1C)c1cccnc1Cl", "note": "[Compound 15, (R)-1-(2-chloro-pyridin-3-yl)ethyl (1-methyl-4-(5-((3-(trifluoro-methyl)bicyclo-[1.1.1]pentan-1-yl)carbamoyl)-pyridin-2-yl)-1H-1,2,3-triazol-5-yl)carbamate]", "EC50": 26.2}
    ]}
  ]
}
